# Where two headings read alike, the source gives them in different places.
# Tests used:
# UT-B [1] = target: T1, UT-B (Mus musculus, UniProt Q8VHL0); test: erythrocyte lysis model, mouse erythrocytes; format: cell-based; conditions: concentration when the erythrocyte lysis rate of mice was 50%
# T1 construct: endogenous in cells; host or cells: erythrocytes of C57 mice
# T1 sequence (Q8VHL0 1-384): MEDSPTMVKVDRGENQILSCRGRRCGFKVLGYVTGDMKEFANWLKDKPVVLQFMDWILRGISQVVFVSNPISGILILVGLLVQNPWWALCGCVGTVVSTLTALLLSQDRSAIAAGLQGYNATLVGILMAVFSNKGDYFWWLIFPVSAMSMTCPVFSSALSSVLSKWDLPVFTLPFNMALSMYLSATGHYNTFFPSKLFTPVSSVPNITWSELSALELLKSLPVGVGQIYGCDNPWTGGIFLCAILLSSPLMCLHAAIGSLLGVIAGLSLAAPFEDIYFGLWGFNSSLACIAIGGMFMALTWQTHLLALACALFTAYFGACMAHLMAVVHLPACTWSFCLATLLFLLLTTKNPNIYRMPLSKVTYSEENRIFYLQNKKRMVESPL
# Procedure: (§1) Erythrocyte lysis rate was calculated:
# (§2) The formula for calculating the lysis rate percentage of erythrocytes, wherein Atest was the absorbance value of the test well, Aneg was the absorbance value of the negative control well, and Apos was the absorbance value of the positive control well. Erythrocyte lysis rate was calculated by measuring absorption at a wavelength of 710 nm.
# (§3) The erythrocytes of three species of human, rats (SD rats) and mice (C57 mice) were taken, and urea transporter inhibitors were preliminarily screened from the above screening compound library by using the erythrocyte urea transporter inhibitor screening model.
# UT-B [2] = target: T2, UT-B (Rattus norvegicus, UniProt P97689); test: erythrocyte lysis model, rat erythrocytes; format: cell-based, rats
# T2 construct: endogenous in cells; host or cells: erythrocytes of SD rats
# T2 sequence (P97689 1-384): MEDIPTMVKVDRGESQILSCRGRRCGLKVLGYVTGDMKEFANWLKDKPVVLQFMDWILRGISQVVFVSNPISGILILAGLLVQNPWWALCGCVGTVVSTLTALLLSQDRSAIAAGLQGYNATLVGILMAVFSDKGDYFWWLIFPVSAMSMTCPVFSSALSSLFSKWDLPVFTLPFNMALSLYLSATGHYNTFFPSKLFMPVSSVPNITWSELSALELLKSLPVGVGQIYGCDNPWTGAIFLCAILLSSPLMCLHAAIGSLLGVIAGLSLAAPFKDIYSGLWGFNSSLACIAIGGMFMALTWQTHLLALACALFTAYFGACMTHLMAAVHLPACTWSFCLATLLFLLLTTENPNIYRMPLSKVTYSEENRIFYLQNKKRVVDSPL
# Procedure: as §1, §2, §3
# human UT-B = target: T3, human UT-B (Homo sapiens, UniProt Q13336); test: erythrocyte lysis model, human erythrocytes; format: cell-based
# T3 construct: endogenous in cells; host or cells: human erythrocytes
# T3 sequence (Q13336 1-389): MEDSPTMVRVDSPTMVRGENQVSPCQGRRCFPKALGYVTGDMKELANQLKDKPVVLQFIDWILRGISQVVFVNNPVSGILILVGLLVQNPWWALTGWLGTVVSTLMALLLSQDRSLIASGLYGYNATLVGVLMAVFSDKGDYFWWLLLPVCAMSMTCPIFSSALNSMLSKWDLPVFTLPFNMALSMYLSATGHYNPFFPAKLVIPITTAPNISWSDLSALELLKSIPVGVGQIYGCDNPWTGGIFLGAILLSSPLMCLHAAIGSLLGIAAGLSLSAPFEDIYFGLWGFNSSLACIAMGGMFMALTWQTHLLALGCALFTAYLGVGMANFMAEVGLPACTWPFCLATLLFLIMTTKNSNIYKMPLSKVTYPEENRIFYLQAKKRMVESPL
# Procedure: as §1, §2, §3
# [3] = concentration when the erythrocyte lysis rate of rats was 50%, read-out: IC50 rats
# [4] = class of the IC50 to human UT-B, read-out: Activity level
# [5] = concentration when the erythrocyte lysis rate of human was 50%, read-out: IC50 human
SMILES,IC50 (UT-B [1]) [µM],IC50 (UT-B [2]; [3]) [µM],IC50 (human UT-B; [4]) [µM],IC50 (human UT-B; [5]) [µM],IC50 (UT-B [2]) [µM],"IC50 (human UT-B; Activity level, class of the IC50 to human UT-B) [µM]","IC50 (human UT-B; IC50 human, concentration when the erythrocyte lysis rate of human was 50%) [µM]"
"O=C(Nc1cccc(Cl)c1)c1ccc([N+](=O)[O-])o1 [Example 38, N-(3-chlorophenyl)-5-nitrofuran-2-carboxamide]",5.81,1.05,< 10,2.91,–,–,–
"CN(C)CCC(=O)Nc1ccc(NC(=O)c2ccc([N+](=O)[O-])o2)cc1 [Example 73, N-(4-(3-dimethylamino)propionylaminophenyl)-5-nitrofuran-2-carboxamide]",27.2,1.3,< 10,6.61,–,–,–
"O=C(Nc1cccc(F)c1)c1ccc([N+](=O)[O-])o1 [Example 36, N-(3-fluorophenyl)-5-nitrofuran-2-carboxamide]",9.28,1.85,< 10,3.09,–,–,–
"CC(C)NC(=O)c1cccc(NC(=O)c2ccc([N+](=O)[O-])o2)c1 [Example 56, N-(3-(isopropylcarbamoyl)phenyl)-5-nitrofuran-2-carboxamide]",9.7,1.76,< 10,3.94,–,–,–
"N#Cc1cccc(NC(=O)c2ccc([N+](=O)[O-])o2)c1 [Example 40, N-(3-cyanophenyl)-5-nitrofuran-2-carboxamide]",7.85,2.77,< 10,1,–,–,–
"O=C(Nc1ccc2ncccc2c1)c1ccc([N+](=O)[O-])o1 [Example 16, N-(quinolin-6-yl)-5-nitrofuran-2-carboxamide]",5.08,5.49,< 10,1.64,–,–,–
"CNC(=O)c1cc(NC(=O)c2ccc([N+](=O)[O-])o2)cc(C(=O)NC)c1 [Example 68, N^1,N^3-dimethyl-5-(5-nitrofuran-2-carboxamide) isophthalamide]",5.69,34.3,20 to 80,22.8,–,–,–
"O=C(Nc1cc[nH]n1)c1ccc([N+](=O)[O-])o1 [Example 20, N-(1H-pyrazol-5-yl)-5-nitrofuran-2-carboxamide]",1.09,1.36,< 10,0.22,–,–,–
"CCNC(=O)c1cccc(NC(=O)c2ccc([N+](=O)[O-])o2)c1 [Example 55, N-(3-(ethylcarbamoyl)phenyl)-5-nitrofuran-2-carboxamide]",5.41,1.21,< 10,0.88,–,–,–
"O=C(Nc1ccccc1F)c1ccc([N+](=O)[O-])o1 [Example 35, N-(2-fluorophenyl)-5-nitrofuran-2-carboxamide]",43.8,3.8,< 10,3.62,–,–,–
"CNC(=O)c1cc(NC(=O)c2ccc([N+](=O)[O-])o2)ccc1O [Example 67, N-(4-hydroxy-3-methylcarbomoylphenyl)-5-nitrofuran-2-carboxamide]",2.66,1.13,< 10,2.61,–,–,–
"O=C(NCc1ccccc1)c1cccc(NC(=O)c2ccc([N+](=O)[O-])o2)c1 [Example 59, N-(3-(benzylcarbamoyl)phenyl)-5-nitrofuran-2-carboxamide]",1.02,0.26,< 10,0.49,–,–,–
"CN1C(=O)c2ccc(NC(=O)c3ccc([N+](=O)[O-])o3)cc2C1=O [Example 69, N-(2-methyl-1,3-dihydro-1,3-dioxo-2H-isoindol-5-yl)-5-nitrofuran-2-carboxamide]",5.16,2.96,10 to 20,12.3,–,–,–
"O=C(Nc1ccc(NC(=O)c2ccc([N+](=O)[O-])o2)cc1)c1ccc([N+](=O)[O-])o1 [Example 52, N,N′-(1,4-phenylene)bis(5-nitrofuran-2-carboxamide)]",0.52,–,–,–,0.27,< 10,0.65

# Reference: patent US12428389B2, “Diarylamide compound and application thereof” (Sunshine Lake Pharma Co., Ltd., priority 2019, dated 2025)
